This data set is described as follows: Evaluation of stability in liver microsome. As to conditions: mouse liver microsome 0.25 mg/mL, 1 μM test compound, 37° C. for 30 minutes. On the technique in general: Liver microsomes are vesicles of endoplasmic reticulum, rich in cytochrome P450 enzymes.
Take `COCc1ccc(NC(=O)c2c(-c3ccccc3)n(C3(C)CC3)c3ncnc(N)c23)cc1` [Example 154, 4-amino-N-(4-(methoxymethyl)phenyl)-7-(1-methylcyclopropyl)-6-phenyl-7H-pyrrolo[2,3-d]pyrimidine-5-carboxamide]: the “Remaining (%)” value is given as 50%. As to `COCc1ccc(NC(=O)c2c(C#Cc3ccc(N)nc3)n(C3(C)CC3)c3ncnc(N)c23)cc1` [Example 155, 4-amino-6-((6-aminopyridin-3-yl)ethynyl)-N-(4-(methoxymethyl)phenyl)-7-(1-methylcyclopropyl)-7H-pyrrolo[2,3-d]pyrimidine-5-carboxamide], the “Remaining (%)” value is 64%.

`COCc1ccc(NC(=O)c2c(C#CCC3NC(=O)NC3=O)n(C3(C)CC3)c3ncnc(N)c23)cc1` (centres unmarked) [Example 156, 4-amino-6-(3-(2,5-dioxoimidazolidin-4-yl)prop-1-yn-1-yl)-N-(4-(methoxymethyl)phenyl)-7-(1-methylcyclopropyl)-7H-pyrrolo[2,3-d]pyrimidine-5-carboxamide]: the “Remaining (%)” value is reported as 67%. As for `CCC(O)CC#Cc1c(C(=O)Nc2ccc(COC)cc2)c2c(N)ncnc2n1C1(C)CC1` (centres unmarked) [Example 157, 4-amino-6-(4-hydroxyhex-1-yn-1-yl)-N-(4-(methoxymethyl)phenyl)-7-(1-methylcyclopropyl)-7H-pyrrolo[2,3-d]pyrimidine-5-carboxamide], the “Remaining (%)” value was determined as 59%. To `COCc1ccc(NC(=O)c2c(C#Cc3ccc4c(c3)NCCO4)n(C3(C)CC3)c3ncnc(N)c23)cc1` [Example 158, 4-amino-6-((3,4-dihydro-2H-benzo[b][1,4]oxazin-6-yl)ethynyl)-N-(4-(methoxymethyl)phenyl)-7-(1-methylcyclopropyl)-7H-pyrrolo[2,3-d]pyrimidine-5-carboxamide] belongs 85%. `COCc1ccc(NC(=O)c2c(C#Cc3cnc4ccoc4c3)n(C3(C)CC3)c3ncnc(N)c23)cc1` [Example 159, 4-amino-6-(furo[3,2-b]pyridin-6-ylethynyl)-N-(4-(methoxymethyl)phenyl)-7-(1-methylcyclopropyl)-7H-pyrrolo[2,3-d]pyrimidine-5-carboxamide]: the “Remaining (%)” value is 78%. To `COCc1ccc(NC(=O)c2c(C#Cc3ccc[nH]3)n(C3(C)CC3)c3ncnc(N)c23)cc1` [Example 161, 6-((1H-pyrrol-2-yl)ethynyl)-4-amino-N-(4-(methoxymethyl)phenyl)-7-(1-methylcyclopropyl)-7H-pyrrolo[2,3-d]pyrimidine-5-carboxamide] belongs 68%. Take `COCc1ccc(NC(=O)c2c(C#Cc3ccccc3)n(C3(C)CC3)c3ncnc(N)c23)cc1` [Example 162, 4-amino-N-(4-(methoxymethyl)phenyl)-7-(1-methylcyclopropyl)-6-(phenylethynyl)-7H-pyrrolo[2,3-d]pyrimidine-5-carboxamide]: the “Remaining (%)” value turned out to be 76%. On to `COCc1ccc(NC(=O)c2c(C#Cc3ccc(OC)cc3)n(C3(C)CC3)c3ncnc(N)c23)cc1` [Example 165, 4-amino-N-(4-(methoxymethyl)phenyl)-6-((4-methoxypheny)ethynyl)-7-(1-methylcyclopropyl)-7H-pyrrolo[2,3-d]pyrimidine-5-carboxamide], for which the “Remaining (%)” value is 90%.

On to `COCc1ccc(NC(=O)c2c(-c3cn[nH]c3)n(C3(C)CC3)c3ncnc(N)c23)cc1` [Example 167, 4-amino-N-(4-(methoxymethyl)phenyl)-7-(1-methylcyclopropyl)-6-(1H-pyrazol-4-yl)-7H-pyrrolo[2,3-d]pyrimidine-5-carboxamide], for which the “Remaining (%)” value worked out at 80%.

As to `COCc1ccc(NC(=O)c2c(-c3ccc(N4CCN(C)CC4)cc3)n(C3(C)CC3)c3ncnc(N)c23)cc1` [Example 171, 4-amino-N-(4-(methoxymethyl)phenyl)-7-(1-methylcyclopropyl)-6-(4-(4-methylpiperazin-1-yl)phenyl)-7H-pyrrolo[2,3-d]pyrimidine-5-carboxamide], the “Remaining (%)” value is given as 77%. As for `COCc1ccc(NC(=O)c2c(C#Cc3ccccn3)n(C3(C)CC3)c3ncnc(N)c23)cc1` [Example 172, 4-amino-N-[4-(methoxymethyl)phenyl]-7-(1-methylcyclopropyl)-6-(pyridin-2-ylethynyl)-7H-pyrrolo[2,3-d]pyrimidine-5-carboxamide], the “Remaining (%)” value amounted to 61%. Turning to `COCc1ccc(NC(=O)c2c(C#CC(C)(C)O)n(C3(C)CC3)c3ncnc(N)c23)cc1` [Example 174, 4-amino-6-(3-hydroxy-3-methylbut-1-yn-1-yl)-N-(4-(methoxymethyl)phenyl)-7-(1-methylcyclopropyl)-7H-pyrrolo[2,3-d]pyrimidine-5-carboxamide], the “Remaining (%)” value is reported as 72%.

`COCc1ccc(NC(=O)c2c(C#Cc3cncc(F)c3)n(C3(C)CC3)c3ncnc(N)c23)cc1` [Example 175, 4-amino-6-((5-fluoropyridin-3-yl)ethynyl)-N-(4-(methoxymethyl)phenyl)-7-(1-methylcyclopropyl)-7H-pyrrolo[2,3-d]pyrimidine-5-carboxamide]: the “Remaining (%)” value is 66%. To `COCc1ccc(NC(=O)c2c(C#Cc3ccsc3)n(C3(C)CC3)c3ncnc(N)c23)cc1` [Example 176, 4-amino-N-(4-(methoxymethyl)phenyl)-7-(1-methylcyclopropyl)-6-(thiophen-3-ylethynyl)-7H-pyrrolo[2,3-d]pyrimidine-5-carboxamide] belongs 70%. Turning to `COCc1ccc(NC(=O)c2c(C#CC3(O)CCOC3)n(C3(C)CC3)c3ncnc(N)c23)cc1` (centres unmarked) [Example 177, 4-amino-6-((3-hydroxytetrahydrofuran-3-yl)ethynyl)-N-(4-(methoxymethyl)phenyl)-7-(1-methylcyclopropyl)-7H-pyrrolo[2,3-d]pyrimidine-5-carboxamide], the “Remaining (%)” value stood at 72%. Take `COCc1ccc(NC(=O)c2c(C#CCN3CC[S+]([O-])CC3)n(C3(C)CC3)c3ncnc(N)c23)cc1` [Example 178, 4-amino-N-(4-(methoxymethyl)phenyl)-7-(1-methylcyclopropyl)-6-(3-(1-oxidethiomorpholino)prop-1-yn-1-yl)-7H-pyrrolo[2,3-d]pyrimidine-5-carboxamide]: the “Remaining (%)” value is 88%.

For `COCc1ccc(NC(=O)c2c(-c3ccc(CO)nc3)n(C3(C)CC3)c3ncnc(N)c23)cc1` [Example 179, 4-amino-6-(6-(hydroxymethyl)pyridin-3-yl)-N-(4-(methoxymethyl)phenyl)-7-(1-methylcyclopropyl)-7H-pyrrolo[2,3-d]pyrimidine-5-carboxamide], the “Remaining (%)” value is listed as 85%.

For `COCc1ccc(NC(=O)c2c(C#Cc3cn(C)nc3C)n(C3(C)CC3)c3ncnc(N)c23)cc1` [Example 181, 4-amino-6-((1,3-dimethyl-1H-pyrazol-4-yl)ethynyl)-N-(4-(methoxymethyl)phenyl)-7-(1-methylcyclopropyl)-7H-pyrrolo[2,3-d]pyrimidine-5-carboxamide], the “Remaining (%)” value is reported as 62%.

Consider `COCc1ccc(NC(=O)c2c(C#Cc3cnn(C)c3C)n(C3(C)CC3)c3ncnc(N)c23)cc1` [Example 182, 4-amino-6-((1,5-dimethyl-1H-pyrazol-4-yl)ethynyl)-N-(4-(methoxymethyl)phenyl)-7-(1-methylcyclopropyl)-7H-pyrrolo[2,3-d]pyrimidine-5-carboxamide], for which the “Remaining (%)” value is listed as 61%.

For the origin of these results see patent US10155768B2, “Fused pyrimidine compound or salt thereof” (TAIHO PHARMACEUTICAL CO., LTD., priority 2016, dated 2018).
